Measured values taken from PubChem BioAssay (NCI).
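Step 1: Grow cells in 96-well plates. Step 2: Expose to compound for 48 hours at 5 concentrations. Step 3: Interpolate endpoints linearly; if unreached, use highest concentration. TGI: total growth inhibition.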

Legend:
Experiment in all cases: inhibition of tumour cell growth, NCI panel, 48 h
M14 melanoma = tested on: M14 melanoma
MDA-N = tested on: MDA-N
786-0 renal = tested on: 786-0 renal
EKVX NSCLC = tested on: EKVX NSCLC
SN12C renal = tested on: SN12C renal
UO-31 renal = tested on: UO-31 renal
OVCAR-4 ovarian = tested on: OVCAR-4 ovarian
HCC-2998 colon = tested on: HCC-2998 colon
HCT-116 colon = tested on: HCT-116 colon
MDA-MB-435 = tested on: MDA-MB-435
SF-268 CNS = tested on: SF-268 CNS
MOLT-4 leukemia = tested on: MOLT-4 leukemia
TK-10 renal = tested on: TK-10 renal
SNB-19 CNS = tested on: SNB-19 CNS
U251 CNS = tested on: U251 CNS
NCI-H23 lung = tested on: NCI-H23 lung
NCI/ADR-RES ovarian = tested on: NCI/ADR-RES ovarian
DU-145 prostate = tested on: DU-145 prostate
SR leukemia = tested on: SR leukemia
OVCAR-8 ovarian = tested on: OVCAR-8 ovarian
NCI-H522 lung = tested on: NCI-H522 lung
OVCAR-3 ovarian = tested on: OVCAR-3 ovarian
SNB-75 CNS = tested on: SNB-75 CNS
ACHN renal = tested on: ACHN renal
K-562 leukemia = tested on: K-562 leukemia
MCF7 breast = tested on: MCF7 breast
SW-620 colon = tested on: SW-620 colon
A498 renal = tested on: A498 renal
T-47D breast = tested on: T-47D breast
SK-OV-3 ovarian = tested on: SK-OV-3 ovarian
IGROV1 ovarian = tested on: IGROV1 ovarian
HT29 colon = tested on: HT29 colon
OVCAR-5 ovarian = tested on: OVCAR-5 ovarian
NCI-H226 lung = tested on: NCI-H226 lung
UACC-62 melanoma = tested on: UACC-62 melanoma
HOP-62 NSCLC = tested on: HOP-62 NSCLC
HOP-92 NSCLC = tested on: HOP-92 NSCLC
UACC-257 melanoma = tested on: UACC-257 melanoma
SK-MEL-2 melanoma = tested on: SK-MEL-2 melanoma
CAKI-1 renal = tested on: CAKI-1 renal
COLO 205 colon = tested on: COLO 205 colon
MALME-3M melanoma = tested on: MALME-3M melanoma
PC-3 prostate = tested on: PC-3 prostate
HS 578T breast = tested on: HS 578T breast
SF-295 CNS = tested on: SF-295 CNS
SK-MEL-28 melanoma = tested on: SK-MEL-28 melanoma
NCI-H460 lung = tested on: NCI-H460 lung
SF-539 CNS = tested on: SF-539 CNS
HL-60(TB) leukemia = tested on: HL-60(TB) leukemia
SK-MEL-5 melanoma = tested on: SK-MEL-5 melanoma
RXF 393 renal = tested on: RXF 393 renal
HCT-15 colon = tested on: HCT-15 colon
BT-549 breast = tested on: BT-549 breast
LOX IMVI melanoma = tested on: LOX IMVI melanoma
KM12 colon = tested on: KM12 colon
A549 NSCLC = tested on: A549 NSCLC
MDA-MB-231 breast = tested on: MDA-MB-231 breast

Measured: TGI

CC1(C)CCC2(C(=O)OC3OC(CO)C(O)C(O)C3O)CCC3(CO)C(=CCC4C5(C)CC(O)C(O)C(C)(C(=O)OC6OC(CO)C(O)C(O)C6O)C5CCC43C)C2C1 (configuration not stated)
> 100 µM: M14 melanoma | MDA-N | 786-0 renal | EKVX NSCLC | SN12C renal | UO-31 renal | OVCAR-4 ovarian | HCC-2998 colon | HCT-116 colon | MDA-MB-435 | SF-268 CNS | MOLT-4 leukemia | TK-10 renal | SNB-19 CNS | U251 CNS | NCI-H23 lung | NCI/ADR-RES ovarian | DU-145 prostate | SR leukemia | OVCAR-8 ovarian | NCI-H522 lung | OVCAR-3 ovarian | SNB-75 CNS | ACHN renal | K-562 leukemia | MCF7 breast | SW-620 colon | A498 renal | T-47D breast | SK-OV-3 ovarian | IGROV1 ovarian | HT29 colon | OVCAR-5 ovarian | NCI-H226 lung | UACC-62 melanoma | HOP-62 NSCLC | HOP-92 NSCLC | UACC-257 melanoma | SK-MEL-2 melanoma | CAKI-1 renal | COLO 205 colon | MALME-3M melanoma | PC-3 prostate | HS 578T breast | SF-295 CNS | SK-MEL-28 melanoma | NCI-H460 lung | SF-539 CNS | HL-60(TB) leukemia | SK-MEL-5 melanoma | RXF 393 renal | HCT-15 colon | BT-549 breast | LOX IMVI melanoma | KM12 colon | A549 NSCLC | MDA-MB-231 breast
